The text below walks through data of patent US7388014B2, “Quinazoline derivatives and therapeutic use thereof” (Rexahn Pharmaceuticals, Inc., priority 2004, dated 2008).

Common to all, as to format: cell-based, Human
The subject of experiment [1] is MCF-7. Nature of the experiment: Cell growth inhibition assay (SRB), MCF-7. Conditions: MCF-7 (breast, hormone-dependent), 96 hours. The source says:
(§1) Cancer cells used in this study to determine the effect of quinazoline compounds were obtained from the following sources: Human OVCAR-3 (ovary), MCF-7 (breast, hormone-dependent), Hs 578T (breast), MDA-MB-231 (breast), HeLa (cervix), PC3 (prostate), HepG2 (liver), A549 (lung), Caki-1 (kidney), HT-29 (colon), HCT116 (colon) and PANC-1 (pancreas) from the American Type Culture Collection (ATCC) (Manassas, Va.); U251 (brain) from Riken (Japan); MKN-45 (stomach) from DSMZ (Germany); UMRC2 (kidney) and Lox IMVI (melanoma) from the United States National Cancer Institute (Bethesda, Md.). All cell lines except Hs 578T, MDA-MB-231, HCT116, UMRC2, Caki-1 and PANC-1 were grown in RPMI1640 medium (Invitrogen, Carlsbad, Calif.) supplemented with 10% fetal bovine serum (“FBS”), 1 mM sodium pyruvate, 10 mM HEPES and 100 U/ml penicillin and 100 μg/ml streptomycin (“P/S”). Hs 578T, MDA-MB-231, HCT116, UMRC2, Caki-1 and PANC-1 cells were maintained in Dulbecco's modified Eagle's medium (“DMEM”, Invitrogen) supplemented with 10% FBS, P/S, 10 mM HEPES and 2 mM L-glutamine. All cells were incubated at 37° C. under humidified 5% CO2.
(§2) The growth inhibition of the substituted quinazoline derivative compounds against a variety of human tumor cells was evaluated. The relative importance of particular substituent groups on the compounds was also studied. The substituted quinazoline derivative compounds, prepared as described above, were tested, along with DMSO as a control.
(§3) The growth inhibition assay of various compounds against 15 human tumor cell lines was performed using the Sulforhodamnine B (“SRB”) method (Skehan et al., J. National Cancer Institute, 82: 1107-1112 (1990)). Briefly, exponentially growing tumor cells were seeded into a 96-well plate at a density of 2-3×10^3 cells/well and treated with quinazoline compounds the next day. Triplicate wells were used for each treatment. The cells were. incubated with the various compounds for 96 hours at 37° C. in a humidified 5% CO2 atmosphere. After 96-hour incubation, cells were fixed with 10% trichloroacetic acid (“TCA”), incubated for 1 hour at 4° C., and washed 3 times with tap water. Subsequently cells were stained with 0.4% sulforhodamine B in 1% acetic acid for 30 minutes, washed 4 times with 1% acetic acid, and air-dried again. After 5 minutes agitation in 10 mM Tris solution, the absorbance of each well was measured at 530 nm using Benchmark Plus Microplate reader (Bio-Rad Laboratories, Hercules, Calif.).
(§4) To translate the OD530 values into the number of live cells in each well, the OD530 values were compared to those on standard OD530—versus—cell number curves generated for each cell line. The percent survival was calculated using the formula: % Survival=live cell number [test]/live cell number [control]×100
(§5) The IC50 values were calculated by non-linear regression analysis.

The test system of experiment [2] is OVCAR-3. Nature of the experiment: Cell growth inhibition assay (SRB), OVCAR-3. To be noted: OVCAR-3 (ovary), 96 hours.
Excerpt: as §1, §2, §3, §4, §5

In experiment [3] the test system is Hs 578T. Nature of the experiment: Cell growth inhibition assay (SRB), Hs 578T. Conditions: Hs 578T (breast), 96 hours.
Excerpt: as §1, §2, §3, §4, §5

Experiment [4] deals with HT-29. Nature of the experiment: Cell growth inhibition assay (SRB), HT-29. Conditions: HT-29 (colon), 96 hours.
Excerpt: as §1, §2, §3, §4, §5

Experiment [5] deals with Caki-1. Nature of the experiment: Cell growth inhibition assay (SRB), Caki-1. To be noted: Caki-1 (kidney), 96 hours.
Excerpt: as §1, §2, §3, §4, §5

The subject of experiment [6] is MDA-MB-231. Nature of the experiment: Cell growth inhibition assay (SRB), MDA-MB-231. To be noted: MDA-MB-231 (breast), 96 hours.
Excerpt: as §1, §2, §3, §4, §5

For experiment [7], the system named is Lox IMVI. Nature of the experiment: Cell growth inhibition assay (SRB), Lox IMVI. Conditions: Lox IMVI (melanoma), 96 hours.
Excerpt: as §1, §2, §3, §4, §5

Experiment [8] relates to U251. Nature of the experiment: Cell growth inhibition assay (SRB), U251. To be noted: U251 (brain), 96 hours.
Excerpt: as §1, §2, §3, §4, §5

Experiment [9] relates to MKN-45. Kind of experiment: Cell growth inhibition assay (SRB), MKN-45. To be noted: MKN-45 (stomach), 96 hours.
Excerpt: as §1, §2, §3, §4, §5

The test system of experiment [10] is PANC-1. Kind of experiment: Cell growth inhibition assay (SRB), PANC-1. To be noted: PANC-1 (pancreas), 96 hours.
Excerpt: as §1, §2, §3, §4, §5

Experiment [11] deals with A549. Nature of the experiment: Cell growth inhibition assay (SRB), A549. Conditions: A549 (lung), 96 hours.
Excerpt: as §1, §2, §3, §4, §5

Experiment [12] deals with HepG2. Nature of the experiment: Cell growth inhibition assay (SRB), HepG2. Conditions: HepG2 (liver), 96 hours, read-out: Inhibition of cell growth (IC50, μM) HepG 2.
Excerpt: as §1, §2, §3, §4, §5

Experiment [13] concerns HeLa. Kind of experiment: Cell growth inhibition assay (SRB), HeLa. To be noted: HeLa (cervix), 96 hours.
Excerpt: as §1, §2, §3, §4, §5

Experiment [14] has as its system PC3. Nature of the experiment: Cell growth inhibition assay (SRB), PC3. To be noted: PC3 (prostate), 96 hours.
Excerpt: as §1, §2, §3, §4, §5

Experiment [15] deals with UMRC2. Nature of the experiment: Cell growth inhibition assay (SRB), UMRC2. Conditions: UMRC2 (kidney), 96 hours.
Excerpt: as §1, §2, §3, §4, §5

Where only a bound is given, the exact number is not on record here.

Take `Cc1cc(C)c(Nc2ncnc3ccc([N+](=O)[O-])cc23)c(C)c1` [RX-1122]: the IC50 in experiment [1] was 0.63 µM; in experiment [2], 1.01 µM; in experiment [3], 1.35 µM; in experiment [4], 2.55 µM; in experiment [5] it was 1.11 µM; in experiment [6], 0.73 µM. For the same compound, the IC50 is 1.1 µM in [7]; 0.57 µM in [8]; 1.33 µM in [9]; 1.42 µM in experiment [10]; 2 µM in [11]; 2.39 µM in experiment [12]. Besides, the IC50 was determined as 1.3 µM in experiment [13], 0.88 µM in [14] and 1.09 µM in experiment [15].

In the case of `FC(F)(F)c1ccccc1CNc1ncnc2ccc(Br)cc12` [RX-1260], the IC50 in experiment [1] is 0.74 µM; in experiment [2] it was greater than 3 µM; in experiment [3] it was greater than 3 µM; in experiment [4], greater than 3 µM; in experiment [5], greater than 3 µM; in experiment [6] it was greater than 3 µM. Further, the IC50 is greater than 3 µM in experiment [7]; 0.69 µM in experiment [8]; greater than 3 µM in experiment [9]; greater than 3 µM in experiment [10]; greater than 3 µM in experiment [11]; 2.25 µM in [12]. For the same compound, the IC50 in experiment [13], in [14] and in experiment [15] was greater than 3 µM in each case.

On to `Cn1cnc2cc3ncnc(NCCc4ccccc4F)c3cc21` [RX-1857], for which the IC50 in experiment [1] is greater than 3 µM; in [2], greater than 3 µM; in experiment [3], greater than 3 µM; in [4] it was greater than 3 µM; in experiment [5] it was 1.57 µM; in experiment [6], greater than 3 µM. The IC50 in [7], in [8], in experiment [9], in experiment [10], in experiment [11] and in [12] was greater than 3 µM each time. Besides, the IC50 in experiment [13], in experiment [14] and in experiment [15] was greater than 3 µM in each case.

For `c1ccc(CCCCNc2ncnc3cc4[nH]cnc4cc23)cc1` [RX-1842], the IC50 in experiment [1] was 1.34 µM; in [2] it was greater than 3 µM; in [3] it was 1.05 µM; in experiment [4] it was greater than 3 µM; in experiment [5] it was greater than 3 µM; in experiment [6] it was 0.84 µM. The IC50 in experiment [7] was 1.15 µM; in [8] it was 1.93 µM; in experiment [9] it was greater than 3 µM; in [10], greater than 3 µM; in experiment [11] it was greater than 3 µM; in experiment [12], 2.47 µM. Moreover, the IC50 in [13] is greater than 3 µM; in [14], greater than 3 µM; in [15], 1.98 µM.

`Fc1cccc(CCNc2ncnc3ccc(I)cc23)c1` [RX-1668]: the IC50 in experiment [1] is 0.23 µM; in [2], greater than 3 µM; in experiment [3], 0.89 µM; in experiment [4] it was greater than 3 µM; in [5] it was 2.93 µM; in experiment [6] it was greater than 3 µM. Further, the IC50 was greater than 3 µM in [7]; 0.27 µM in experiment [8]; greater than 3 µM in experiment [9]; 1.83 µM in experiment [10]; greater than 3 µM in experiment [11]; 0.3 µM in experiment [12]. Also, the IC50 in [13] was greater than 3 µM; in experiment [14] it was greater than 3 µM; in experiment [15] it was 1.83 µM.

As to `Fc1cc(Cl)ccc1Nc1ncnc2ccc(I)cc12` [RX-1701], the IC50 was 1.36 µM in experiment [1]; greater than 3 µM in experiment [2]; greater than 3 µM in experiment [3]; greater than 3 µM in [4]; 2.85 µM in [5]; greater than 3 µM in [6]. Besides, the IC50 in [7] was greater than 3 µM; in experiment [8], 2.19 µM; in [9], greater than 3 µM; in experiment [10] it was greater than 3 µM; in experiment [11] it was greater than 3 µM; in experiment [12], 1.16 µM. Further, the IC50 in experiment [13], in experiment [14] and in [15] was greater than 3 µM in each case.

In the case of `Cc1cccc2ncnc(NCCc3ccc(F)cc3)c12` [RX-1541], the IC50 in [1] is 1.26 µM; in experiment [2], 2.86 µM; in [3] it was 0.53 µM; in [4], 1.26 µM; in [5], greater than 3 µM; in experiment [6], 0.47 µM. Moreover, the IC50 in [7] was 2.96 µM; in experiment [8], 1.78 µM; in experiment [9], greater than 3 µM; in experiment [10], 0.22 µM; in experiment [11] it was 1.89 µM; in experiment [12], 0.91 µM. In addition, the values for the IC50 in experiment [13], in experiment [14] and in experiment [15] were greater than 3 µM, greater than 3 µM and 0.37 µM, respectively.

Turning to `Cn1cnc2cc3ncnc(NCCc4cccc(F)c4)c3cc21` [RX-1894], the IC50 is 1.17 µM in experiment [1]; greater than 3 µM in [2]; greater than 3 µM in experiment [3]; 1.7 µM in experiment [4]; 2.33 µM in experiment [5]; greater than 3 µM in experiment [6]. Besides, the IC50 was greater than 3 µM in experiment [7]; 0.9 µM in [8]; greater than 3 µM in experiment [9]; greater than 3 µM in [10]; greater than 3 µM in [11]; 0.85 µM in experiment [12]. The IC50 in experiment [13], in experiment [14] and in experiment [15] was greater than 3 µM in each case.

On to `Fc1cccc(CCNc2ncnc3ccccc23)c1` [RX-1195], for which the IC50 in experiment [1] was 1.53 µM; in [2], 2.6 µM; in experiment [3] it was 0.44 µM; in experiment [4] it was 2.07 µM; in [5], greater than 3 µM; in experiment [6] it was 0.46 µM. Besides, the IC50 in [7] was 2.16 µM; in experiment [8], 1.95 µM; in [9], greater than 3 µM; in experiment [10], 0.34 µM; in experiment [11], 2.1 µM; in experiment [12], 1.18 µM. In addition, the IC50 in experiment [13] was greater than 3 µM; in experiment [14], greater than 3 µM; in experiment [15], 0.41 µM.

Turning to `Fc1cccc(CCNc2ncnc3ccc(Br)cc23)c1` [RX-1242], the IC50 is 0.58 µM in [1]; greater than 3 µM in experiment [2]; 1.03 µM in [3]; greater than 3 µM in experiment [4]; 2.39 µM in experiment [5]; 0.88 µM in [6]. Besides, the IC50 in experiment [7] is 0.73 µM; in [8] it was 0.56 µM; in experiment [9], greater than 3 µM; in experiment [10], greater than 3 µM; in experiment [11], 2.4 µM; in experiment [12], 0.9 µM. In addition, the IC50 was greater than 3 µM in experiment [13], greater than 3 µM in experiment [14] and 1.29 µM in experiment [15].

As a reminder, the IC50 is the midpoint of a concentration-inhibition curve.
